Counter-ions that a name gives are not always drawn.
Assays:
[1] = Permeability studies, Franz diffusion cells; assay type: in vitro ADME; details: pig
Procedure: Freshly collected buccal tissues were obtained from pig and mucosa's were isolated carefully. The prepared mucosa membranes with approximate size of 4 cm^2 were mounted between donor and receiver chambers of Franz diffusion cells with available diffusion area of 1.77 cm^2. Test treatments and controls were run in quadruplicate. The receiver compartment, which contained a stirring bar, was filled with 8 mL of KRB buffer, pH 7.4 containing 1% BSA. The Franz cells were placed in a heating/stirring block. The temperature was set at 37° C. in order to maintain the tissue surface temperature at 32° C.; the stirring rate was set at 400 rpm. Two milliliters of formulated compound at different pHs was added to the donor chambers, completely covering the exposed mucosa. All dosing solutions contained 0.1% of sodium dithionite, 0.2% DMSO and 5% propylene glycol or glycerin. The donor compartment was covered with Parafilm to minimize evaporation. An aliquot (˜0.5 mL) was taken from the receiver compartment at 2, 60, 90, and 120 min and replaced with an equal volume of buffer warmed at 37° C. Sampling time points from donor compartment were 0, 60, 90 and 120 min. Samples were diluted with 0.5 mL (1:1) of 10% aq. ascorbic acid. The concentration of each analyte was quantified by LC-MS/MS (Appendix I). The whole study was done in dark with yellow light, and glass vials and syringes were used for sampling. […] Cd final is the concentration of the donor at the end of the incubation period (interval), μM.

[2] = cited from earlier work
[3] = subcutaneous injection, 0.5 mg/kg, literature value; cited from earlier work

Compound | Papp at 120 min ([1]; pH 6.4, pH 6.4) [×10⁻⁶ cm/s] | Papp at 120 min ([1]; pH 6.8, pH 6.8) [×10⁻⁶ cm/s] | Papp at 120 min ([1]; pH 7.4, pH 7.4) [×10⁻⁶ cm/s] | Papp at 120 min ([1]; pH 8, pH 8.0) [×10⁻⁶ cm/s] | Papp at 120 min ([1]; pH 8, pH 8.0 + 1% glycerin monostearate) [×10⁻⁶ cm/s] | Papp at 120 min ([1]; pH 8, pH 8.0 + 1% magnesium stearate) [×10⁻⁶ cm/s] | Papp at 120 min ([1]; pH 8, pH 8.0 + 1% tocopherol acetate) [×10⁻⁶ cm/s] | adverse effects of intranasal administration ([2]; intranasal administration) | side effect of subcutaneous injection ([2]; subcutaneous injection) | adverse effects of sublingual tablets ([2]; sublingual administration of tablets, prolonged use) | AUCinf [3] [ng·min/mL] | Cmax [3] [ng/mL] | Tmax [3] [min]
CN1CCc2cccc3c2[C@H]1Cc1ccc(O)c(O)c1-3 [apomorphine] | 0.071 | 0.054 | 0.185 | 0.556 | 2.34 | 0.3 | 0.98 | transient nasal blockage, burning sensation and swollen nose and lips | development of nodules, which often become infected | severe stomatitis on prolonged use with buccal mucosal ulceration in half the patients |  |  | 
CN1CCc2cccc3c2[C@H]1Cc1ccc(O)c(O)c1-3 [sc inj, apomorphine hydrochloride] |  |  |  |  |  |  |  |  |  |  | 17828 | 331 | 25

From patent US9283219B2, “Sublingual films” (Cynapsus Therapeutics, Inc., priority 2010, dated 2016)
